Measured values published in article PMC6896172, “Successful Targeting of the Warburg Effect in Prostate Cancer by Glucose-Conjugated 1,4-Naphthoquinones” (Cancers, 2019).
Like-named read-outs stand apart in the source and are kept apart here.

Tests used:
[1] = system: PC-3 cells; assay: MTT cytotoxicity assay in PC-3 cells; type: cell-based, human
Source text: (§1) For general experiments human prostate cancer cell lines PC-3 and DU145 (docetaxel-resistant, androgen-independent, AR-FL(−), AR-V7(−)), 22Rv1 and VCaP (docetaxel-sensitive, androgen-independent, AR-FL(+), AR-V7(+), and LNCaP (docetaxel sensitive, androgen-dependent, AR-FL(+), AR-V7(−) were used. PC-3, 22Rv1, LNCaP cells as well as the human prostate non-cancer cells PNT2 and RWPE-1 were purchased from ATCC (Manassas, VA, USA). VCaP were purchased from ECACC (Salisbury, UK). The human fibroblast cell line MRC-9, the human embryonic kidney cell line HEK 293T, as well as the human umbilical vascular endothelial cell line HUVEC were kindly donated by Prof. Dr. Dr. med. Sonja Loges (University Medical Center Hamburg-Eppendorf, Hamburg, Germany). Cells were cultured according to the manufacturers’ instructions and were recently authenticated by a commercial service (Multiplexion, Heidelberg, Germany). Culture conditions are described in the Supplementary Information.
(§2) MTT (3-(4,5-dimethylthiazol-2-yl)-2,5-diphenyltetrazolium bromide) cytotoxicity assay was used for the evaluation of cytotoxicity of the compounds or their combinations. Experiments were performed as previously described. In brief, 6000 cells/well were seeded in 96-well plate, incubated overnight, and treated with the drugs in 100 µL/well of 10% FBS/RPMI media containing 2 g/L of D-(+)-glucose for 48 h, unless otherwise stated. For 2 h treatment the cells were treated with the drugs for 2 h in the culture media, then the media was exchanged to fresh drug-free media (100 µL/well) containing MTT reagent and the further steps were performed as previously described.
(§3) Table S4. Cytotoxic activity of the synthesized compounds. Cytotoxicity was determined in human prostate cancer PC-3 cells versus human prostate non-cancer
(§4) PNT2 cells after 48 h of treatment, as well as its ratio. IC50 was evaluated using MTT assay. SI–selectivity index. #–the IC50s in both cell lines were >100 µM.
(§5) Anisomycin was used as a reference substance.
(§6) No Formula IC50(PC-3) IC50(PNT2) SI […]

[2] = system: PNT2 cells; assay: MTT cytotoxicity assay in PNT2 cells; type: cell-based, human; conditions: 48 h of treatment
Source text: as §1, §2, §3, §4, §5, §6

[3] = system: RWPE-1 cells; assay: MTT cytotoxicity assay in RWPE-1 cells; type: cell-based; conditions: Homo sapiens, 48 h of treatment, non-cancer
Procedure: (§7) Dr. Dr. med. Sonja Loges (University Medical Center Hamburg-Eppendorf, Hamburg, Germany). Cells were cultured according to the manufacturers’ instructions and were recently authenticated by a commercial service (Multiplexion, Heidelberg, Germany). Culture conditions are described in the Supplementary Information.
as §2

[4] = system: VCaP cells; assay: MTT cytotoxicity assay in VCaP cells; type: cell-based; conditions: Homo sapiens, 48 h of treatment, cancer
Procedure: as §7, §2

[5] = system: DU145 cells; assay: MTT cytotoxicity assay in DU145 cells; type: cell-based; conditions: Homo sapiens, DU-145, 48 h of treatment, cancer
Procedure: as §7, §2

[6] = system: 22Rv1 cells; assay: MTT cytotoxicity assay in 22Rv1 cells; type: cell-based, human; conditions: for IC50: Homo sapiens
Procedure: as §7, §2

[7] = system: 22Rv1 cells; assay: Intracellular ROS (CM-H2DCFDA, flow cytometry); type: cell-based, human; conditions: 2 h of treatment
Procedure: Intracellular ROS levels were estimated using the ROS-sensitive CM-H2DCFDA reagent (Cat. No. C6827, Molecular probes, Invitrogen, Eugene, OR, USA) as described before. In brief, 22Rv1 cells were seeded in 12-well plates (0.2 × 10^6 cells/well in 1 mL/well of media) and incubated overnight. The media was changed into freshly made pre-warmed 4 µM CM-H2DCFDA/PBS (0.5 mL/well) and incubated for 30 min (37 °C, 5% CO2, in the dark). Then, the CM-H2DCFDA solution was exchanged with 1 mL/well of pre-warmed PBS containing the drugs or H2O2 (positive control) at the indicated concentrations. After 2 h of incubation the cells were trypsinized and immediately analyzed by flow cytometry technique according to the manufacture’s protocols.

[8] = system: 22Rv1 cells; assay: Mitochondrial membrane potential assay (JC-1, flow cytometry); type: cell-based, human; conditions: 2 h of treatment
Procedure: The loss of mitochondrial membrane potential (Δψ) was measured by flow cytometry technique using staining with Δψ-sensitive dye JC-1 (5,5′,6,6′-tetrachloro-1,1′,3,3′-tetraethylimidacarbocyanine iodide). Cells were seeded in 12-well plates (100 × 10^3 cells/well in 1 mL/well) and incubated overnight. Then, the media was changed to PBS (1 mL/well) containing the investigational drugs. After 2 h of incubation (37 °C, 5% CO2, in the dark) the cells were trypsinized, pelleted, resuspended in 100 µL of 2 µM JC-1/PBS, incubated for 1 h (37 °C, 5% CO2, in the dark) and Δψ loss was measured by flow cytometry technique.

[9] = system: 22Rv1 cells; assay: Colony formation assay; type: cell-based, human; conditions: 22Rv1 cells treated with non-cytotoxic concentrations for 48 h
Procedure: Colony formation assays were performed as described before. In brief, cells were treated with the drugs for 48 h and then 100 alive cells were plated into each well of 6-well plates and incubated for 10 days. Surviving colonies were fixed, stained with Giemsa solution and counted.

[10] = system: 22Rv1 cells; assay: Western blotting of treated cells; type: cell-based, human
Procedure: Preparation of protein extracts for western blotting was performed as described previously. In brief, for western blotting, 1 × 10^6 cells/well were seeded in Petri dishes (ø 6 cm TC Dish (Sarstedt, Numbrecht, Germany) in 5 mL/dish), incubated overnight and treated with drugs in 5 mL/dish for an indicated time. Cells were harvested using a cell scraper, pelleted, and resuspended in the lysis buffer containing protease and phosphatase inhibitors. Further sample preparation and western blotting were performed as previously described with slight modifications. Relative optical density of the detected bands was quantified with Quantity One 4.6 software (Bio-Rad, Hercules, CA, USA). The primary and secondary antibodies used are listed in the Supplementary Information.

CC1(C)OC2OC(C(O)COC3=CC(=O)c4cccc(O)c4C3=O)C(O)C2O1 (stereo not drawn) [Compound 11]
IC50 ([1]; Homo sapiens, PC-3, 48 h, 48 h of treatment): 2070 nM
SI [IC50(PNT2) / IC50(PC-3)] ([1]; ratio of IC50 in PNT2 cells to IC50 in PC-3 cells, 48 h): 2.40
IC50 [2]: 4960 nM
IC50 ([2]; Homo sapiens, PNT2, 48 h): 4960 nM
IC50 [3]: 1480 nM
IC50 [4]: 3110 nM
IC50 [5]: 470 nM
effect of N-acetyl-L-cysteine pre-treatment on cytotoxic activity ([6]; 22Rv1 cells, 1 mM NaC 1 h then co-treatment 48 h, FBS- and glucose-free RPMI): significantly suppressed the cytotoxic activity
IC50 ([6]; 22Rv1, 48 h of treatment, cancer, read-out: IC50 (22Rv1)): 710 nM
IC50 ([6]; 22Rv1 cells, 2 h treatment, read-out: IC50 after 2 h of treatment): 20400 nM
effect on ROS level [7]: remarkable and significant increase of the ROS level
effect on ΔΨm [8]: quick ΔΨm loss
cancer cell colony formation [9]: suppress cancer cell colony formation
cleavage of caspase-9 ([10]; 2 h and 48 h treatment): observed already after 2 h
ERK1/2 activity ([10]; 2 h treatment): suppressed
MEK1/2 alteration ([10]; 2 h treatment): No significant alteration
activation of Akt ([10]; 2 h treatment): slight Akt activation
activation of p38 and JNK1/2 ([10]; 2 h treatment): pronounced activation
AR-FL and AR-V7 expression ([10]; 48 h treatment): downregulated both, AR full length (AR-FL) and AR-V7
Bax and Bcl-2 expression ([10]; 48 h treatment): up-regulation of Bax and down-regulation of Bcl-2
LC3B-II and SQSTM1 levels (autophagy markers) ([10]; pre-cytotoxic and cytotoxic concentrations, 48 h): accumulation of both, LC3B-II and SQSTM1
